Assay results taken from US20050267050A1, “Compositions and methods for treating mdma-induced toxicity” (YEDA RESEARCH AND DEVELOPMENT CO. LTD., priority 2002, published 2005).

System: MDMA acute toxicity in mice
Test: Protective activity against MDMA acute toxicity (survival) in mice
Assay type: in vivo, C57B1/6J mice
Conditions: inhibitor i.p. 5-120 minutes before toxic dose of MDMA; FIG. 6A
Procedure: Next step was to determine whether compounds blocking the enhanced expression of GABA transporters may restraint MDMA-induced hyperthermia. We ran trials to determine whether the mortality levels causes by MDMA administration would be affected by treatment with suspected GABA transporter inhibiting compounds Tiagabine, nipecotic acid derivative NO-711, and Vigabatrin which have been used hitherto as anti-epileptics.
Mice were administered dose(s) of mg/ml of MDMA according to the following schedule and were […] injected with a dose of the GABA transporter blocker. In the first set of experiments the effective toxic dose of MDMA was determined. C57B1/6J mice, 2-3 months old, 6 mice in each group, were tested with different concentration of the drug, prepared in saline and injected intraperitoneally. Saline solution was used as a control. The lowest concentration of the drug causing 100% death within 60 minutes was used in the following experiments. Mice (8 in each group) were injected (i.p.) with different concentrations of the tested GABA transporter inhibitor, or other compound, and 5-120 minutes later were injected with the toxic dose of MDMA. […]

## Cc1ccsc1C(=CCCN1CCC[C@@H](C(=O)O)C1)c1sccc1C [Tiagabine, (R)-1-[4,4-Bis(3-methyl-2-thienyl)-3-butenyl]-3-piperidinecarboxylic acid]
  Survival of MDMA-treated mice: significantly improved the survival
